Entries after “also recorded” stand apart in the source; their conditions may differ.
Columns and labels:
RSV = RSV plaque reduction assay in HEp-2 cells; conditions: for SI (CC50/IC50): CC50 HEp-2 / anti-RSV IC50; for IC50: human respiratory syncytial virus, HEp-2, 72 h, read-out: anti-RSV activity IC50
Experimental: (§1) The extracts and the isolated compounds were tested for antiviral activity against RSV by the viral plaque reduction assay in cultures of HEp-2 cells (Table 3, Supporting Information). A tetrazolium-based cytotoxicity assay on HEp-2 cells was also performed to exclude that the anti-RSV activity was a result of general cytotoxicity. The cytotoxicity assay was complemented by microscopy observation of the compound- and extract-treated cells to detect possible cytostatic activity, such as poor cell growth and/or altered cell shape that may affect antiviral activity. […] At this stage, it is difficult to assess whether the cytostatic activity of these specific compounds contributed to the protection of cells against virus infection, and accordingly the specificity of anti-RSV action of 9 and 13 requires further investigation. An attempt was made to address this issue by testing cytotoxic activities of the most promising compounds in human embryonic lung fibroblasts (HELFs), i.e., primary cells derived from lung interstitium.
Human adenocarcinoma cells of uterine cervix (HeLa) were grown in Eagle’s minimum essential medium supplemented with 5% fetal calf serum and antibiotics. HELFs were grown in Eagle’s minimum essential medium supplemented with 5% fetal calf serum, L-glutamine, and antibiotics. […] The RSV stock was prepared and stored as described previously by Lundin et al.[50]
The RSV plaque reduction assay was performed as described previously[27],[51] with some modifications. […] Following 15 min of incubation at 37 °C in a humidified atmosphere comprising 5% CO2 (incubator), the cells were inoculated with 50–100 plaque-forming units of RSV A2. After incubation of the virus–compound mixture with cells for 2.5 h in the CO2 incubator, the inoculum was removed and 750 μL of 1% methylcellulose solution in DMEM-M comprising the same concentration of test compound/extract was added and left for a further 3 days in the CO2 incubator. The cells were stained with a 1% solution of crystal violet, and the viral plaques were counted under a microscope.

in vitro = conditions: human
Experimental: as §1
(§2) HEp-2 cells were cultivated in Dulbecco’s modified Eagle’s medium (DMEM) supplemented with 8% fetal calf serum and 292 μg/mL of L-glutamine. Human adenocarcinoma cells of uterine cervix (HeLa) were grown in Eagle’s minimum essential medium supplemented with 5% fetal calf serum and antibiotics. HELFs were grown in Eagle’s minimum essential medium supplemented with 5% fetal calf serum, L-glutamine, and antibiotics. The A2 strain of RSV (ATCC VR-1540) was used. The RSV stock was prepared and stored as described previously by Lundin et al.[50] In some experiments, strain HGP of HRV-2 (ATCC, VR-482) was used.
(§3) The tetrazolium-based cytotoxicity assay using a CellTiter 96 Aqueous One solution reagent (Promega) was performed for the test extracts and isolated compounds in HEp-2, HELFs, and HeLa cells as described previously.[50]
(§4) Figure S130. Cell viability in presence of the crude extracts of leaves and root heart of Milletia oblata ssp teitensis. The HEp-2 cells were incubated for 3 days at 37 °C with specific concentration of test extract. After addition of the tetrazolium (MTS)-based reagent the absorbance was recorded at 490 nm. The results are expressed as a percentage of absorbance developed in extract treated cells relative to DMSO treated controls. […]

[1] = Tetrazolium-based cytotoxicity assay in human embryonic lung fibroblasts; conditions: human
Experimental: as §1, §2, §3

HEp-2 cells [2] = experiment: Microscopic recording of cytostatic activity in compound-treated HEp-2 cells; conditions: microscopy, PCP poor cell proliferation, ACS altered cell shape, PCS poor cell staining, concentration(s) at which seen in brackets
Experimental: as §1

HEp-2 cells [3] = experiment: Tetrazolium-based cytotoxicity assay in HEp-2 cells; conditions: read-out: cytotoxicity CC50; HEp-2 cells, tetrazolium-based assay
Experimental: as §1, §2, §3, §4

HRV-2 = experiment: Anti-HRV-2 tetrazolium-based cell protection assay in HeLa cells; parameters: species or system human rhinovirus 2 (strain HGP)
[4] = system: human embryonic lung fibroblasts (HELFs); experiment: Tetrazolium-based cytotoxicity assay in human embryonic lung fibroblasts; conditions: primary lung fibroblasts
Experimental: as §1, §2, §3

[5] = Tetrazolium-based cytotoxicity assay in HeLa cells; format: cell-based; conditions: human, 34 °C
Experimental: Figure S133. Anti-HRV-2 (IC50) of 3 of Milletia oblata ssp teitensis in HeLa cells. In the cell protection against HRV assay, the cells were incubated in the presence of specific concentrations of test compound for 3 h, then inoculated with HRV and incubated for further 3 days at 34°C. Two separate experiments were performed, and the cell protection against HRV-2 was calculated according to formula described in the Method section. In the cell viability assay, the cells were incubated with test compound for 3 days at 34°C. For further explanations see legend to Figure S130.
Table S1. Anti-RSV activity, cytotoxicity for HEp-2 cells, and selectivity indices (SI) of Milletia oblata extracts. For explanations see legend to Table 3.
Compound/extract Anti-RSV activity Cytotoxicity SI […]
Root wood extract 3.4 66 PCS (8 µg/mL) 19.4
(1 picture or pasted object on this page, not shown here)

[6] = cytotoxicity CC50, HEp-2 cells, tetrazolium-based assay
[7] = HEp-2 cells, cytotoxicity CC50, HEp-2 cells, tetrazolium-based assay
[8] = human embryonic lung fibroblasts (HELFs), primary cells

For `COc1ccc2c(c1)O[C@@H]1COc3c(cc(OC)c4c3OCO4)[C@]1(O)C2=O` [Compound 7, oblarotenoid D], which “SI (CC50/IC50)” value (RSV) is on record?
The value was 3.8.

What about the IC50 (RSV) of the same molecule?
Its IC50 is 1.8 µM.

What about the CC50 (in vitro; [6]) of the same molecule?
Its CC50 is 6.7 µM.

For `CC1(C)C=Cc2c(ccc(C(=O)/C=C/c3ccc(O)cc3)c2O)O1` [Compound 19, isobavachromene], which “SI (CC50/IC50)” value (RSV) is on record?
Its value is under 2.5.

What about the IC50 (RSV) of the same molecule?
Its IC50 is over 0.8 µM.

And the CC50 at 3 days (in vitro; [7])?
The CC50 at 3 days was 2 µM.

What does the source list for `CC1(C)C=Cc2c(ccc3c(=O)c(-c4ccc5c(c4)OCO5)coc23)O1` [Compound 16, calopogonium isoflavone B]?
SI (CC50/IC50) (RSV): 1.0; IC50 (RSV): > 100 µM; CC50 at 3 days (in vitro; [7]): > 100 µM

For `CC(C)=CCOc1ccc(-c2coc3c4c(ccc3c2=O)OC(C)(C)C=C4)cc1` [Compound 13, isoerythrin-A-4′-prenyl ether], which CC50 [1, 8] is on record?
Its CC50 is 9 µM.

And the “SI (CC50/IC50)” value (RSV)?
The value was over 47.6.

What about the IC50 (RSV) of the same molecule?
The IC50 was 2.1 µM.

And the CC50 at 3 days (in vitro; [7])?
The CC50 at 3 days was over 100 µM.

What about the “cytotoxicity: cytostatic activity” value (HEp-2 cells [2]) of the same molecule?
Its value is “cytostatic activity at concentrations close to their IC50 values; also recorded: PCS (4.0, 20.0, and 100.0 μM)”.

Which results are given for `COc1ccc2c(c1)O[C@@H]1COc3cc(OC)c(OC)cc3[C@]1(O)C2=O` [Compound 8, 12a-hydroxymunduserone]?
CC50 [1]: 4.8 µM; SI (CC50/IC50) (RSV): 28.0; IC50 (RSV): 1.5 µM; CC50 (in vitro; [6]): > 26.5 µM; CC50 (HEp-2 cells [3]): 42 µM; cytotoxicity: cytostatic activity (HEp-2 cells [2]): PCS (20.0 μM)

Which SI (HRV-2; CC50 HeLa / anti-HRV-2 IC50) does the source give for `COc1ccc2c(=O)c3c(oc2c1)COc1cc2c(cc1-3)OCO2` [Compound 3, 9-methoxy-2,3-methylenedioxy-6a-2a-dehydrorotenoid] here?
The SI was 11.4.

And the IC50 (HRV-2; Rhinovirus A, HRV2, 72 h, protection of HeLa cells against HRV-2 infection, 3 days, 34 °C)?
Its IC50 is 4.2 µM.

And the “cytotoxicity (in words)” value [4]?
The value was “low cytotoxicity”.

What about the CC50 [1, 8] of the same molecule?
The CC50 was over 100 µM.

And the “SI (CC50/IC50)” value (RSV)?
The value was 4.1.

What about the IC50 (RSV) of the same molecule?
Its IC50 is 22 µM.

What about the CC50 at 3 days (in vitro; [7]) of the same molecule?
Its CC50 at 3 days is 90 µM.

And the CC50 at 3 days [5]?
The CC50 at 3 days was 48 µM.

For `NC(=O)c1ncn([C@@H]2O[C@H](CO)[C@@H](O)[C@H]2O)n1` [ribavirin, reference compound], which IC50 (RSV) is on record?
The IC50 was 10.6 µM.

And the CC50 at 3 days (in vitro; cytotoxicity CC50)?
The CC50 at 3 days was over 100 µM.

Which results are given for `COc1ccc2c(=O)c(-c3cc4c(cc3OC)OCO4)coc2c1` [Compound 15, aglycuneatin methyl ether]?
CC50 [1, 8]: 47.1 µM; SI (CC50/IC50) (RSV): 6.5; IC50 (RSV): 10 µM; CC50 at 3 days (in vitro; [7]): 65 µM; cytotoxicity: cytostatic activity (HEp-2 cells [2]): PCS (20.0 μM)

Which CC50 [1] does the source give for `COc1cc2c(cc1OC)[C@@H]1C(=O)c3ccc4c(c3O[C@@H]1CO2)C=CC(C)(C)O4` [Compound 10, deguelin] here?
Its CC50 is 0.3 µM.

What about the IC50 (RSV) of the same molecule?
The IC50 was 0.4 µM.

What about the CC50 (in vitro; [6]) of the same molecule?
Its CC50 is over 26.5 µM.

What about the CC50 (HEp-2 cells [3]) of the same molecule?
The CC50 was 26.5 µM.

What about the “cytotoxicity: cytostatic activity” value (HEp-2 cells [2]) of the same molecule?
Its value is “PCS (4.0 μM)”.

For `COc1c(O[C@@H]2O[C@H](CO[C@H]3O[C@H](C)[C@@H](O)[C@H](O)[C@@H]3O)[C@@H](O[C@@H]3O[C@H](CO[C@H]4O[C@H](C)[C@@H](O)[C@H](O)[C@@H]4O)[C@@H](O)[C@H](O)[C@H]3O)[C@H](O)[C@H]2O)cc2c(=O)c(-c3ccc4c(c3)OCO4)coc2c1OC` [Compound 4, isoplatycarpanetin-6-O-β-glucosyl-(7″→1‴′)-α-rhamnosyl-(4″→1‴)-β-glucosyl-(7‴→1‴′)-α-rhamnoside], which “SI (CC50/IC50)” value (RSV) is on record?
Its value is 1.0.

What about the IC50 (RSV) of the same molecule?
Its IC50 is over 100 µM.

What about the CC50 at 3 days (in vitro; [7]) of the same molecule?
Its CC50 at 3 days is over 100 µM.

With `COc1ccc2c(c1)O[C@@H]1COc3cc4c(cc3[C@@H]1C2=O)OCO4` [Compound 5, oblarotenoid C] as the molecule, how does the “SI (CC50/IC50)” value (RSV) read?
Its value is over 1.9.

And the IC50 (RSV)?
Its IC50 is 53 µM.

And the CC50 (in vitro; [6])?
Its CC50 is over 100 µM.

Which results are given for `CC(C)=CCOc1ccc(-c2coc3c4c(cc(O)c3c2=O)OC(C)(C)C=C4)cc1` [Compound 14, 4′-prenyloxyderrone]?
cytotoxicity (in words) [4]: low cytotoxicity; CC50 [1, 8]: > 100 µM; SI (CC50/IC50) (RSV): >10; IC50 (RSV): 10 µM; cytotoxicity: cytostatic activity (HEp-2 cells [2]): PCS (100.0 μM)

What does the source list for `COc1ccc2c(c1)O[C@@H]1COc3c(cc(OC)c4c3OCO4)[C@@H]1C2=O` [Compound 1, (6aS,12aS)-2,9-dimethoxy-3,4-methylenedioxyrotenoid]?
SI (CC50/IC50) (RSV): 1.0; IC50 (RSV): > 100 µM; CC50 (in vitro; [6]): > 100 µM

For `COc1ccc2c(=O)c(-c3cc(OC)c4c(c3OC)OCO4)coc2c1` [Compound 12, 7,2′,5′-trimethoxy-3′,4′-methylenedioxyisoflavone], which “SI (CC50/IC50)” value (RSV) is on record?
The value was 1.0.

What about the IC50 (RSV) of the same molecule?
Its IC50 is over 100 µM.

And the CC50 at 3 days (in vitro; [7])?
Its CC50 at 3 days is over 100 µM.

Which results are given for `COc1cc2c(cc1OC)[C@]1(O)C(=O)c3ccc4c(c3O[C@@H]1CO2)C=CC(C)(C)O4` [Compound 9, tephrosin]?
SI (CC50/IC50) (RSV): 15.6; IC50 (RSV): 0.8 µM; CC50 at 3 days (in vitro): 12.5 µM; cytotoxicity: cytostatic activity (HEp-2 cells [2]): cytostatic activity at concentrations close to their IC50 values; also recorded: PCS (0.8 and 4.0 μM)

What does the source list for `COc1ccc2c(c1)O[C@@H]1COc3cc4c(cc3[C@]1(O)C2=O)OCO4` [Compound 6, oblarotenoid A]?
CC50 [1]: 1.3 µM; SI (CC50/IC50) (RSV): 35.7; IC50 (RSV): 1.4 µM; CC50 (in vitro; [6]): > 26.5 µM; CC50 (HEp-2 cells [3]): 50 µM; cytotoxicity: cytostatic activity (HEp-2 cells [2]): PCS (20.0 μM)

With `COc1cc2c(cc1-c1coc3cc(O)ccc3c1=O)OCO2` [Compound 17, maximaisoflavone G] as the molecule, how does the “SI (CC50/IC50)” value (RSV) read?
The value was 1.0.

And the IC50 (RSV)?
Its IC50 is over 100 µM.

What about the CC50 at 3 days (in vitro; [7]) of the same molecule?
The CC50 at 3 days was over 100 µM.

Which “cytotoxicity (in words)” value [4] does the source give for `COc1cc2c(cc1-c1coc3c4c(c(OC)cc3c1=O)OC(C)(C)C=C4)OCO2` [Compound 11, ichthynone] here?
Its value is “low cytotoxicity”.

What about the CC50 [1, 8] of the same molecule?
The CC50 was over 100 µM.

And the “SI (CC50/IC50)” value (RSV)?
Its value is 11.4.

What about the IC50 (RSV) of the same molecule?
Its IC50 is 8 µM.

And the “cytotoxicity: cytostatic activity” value (HEp-2 cells [2])?
The value was “PCS (20.0 μM)”.

With `COc1cc2c(cc1OC)C(=O)[C@@]1(O)c3cc4c(cc3OC[C@H]1O2)OCO4` [Compound 2, (6aR,12aR)-9,10-dimethoxy-2,3-methylenedioxy-12a-hydroxyrotenoid] as the molecule, how does the “SI (CC50/IC50)” value (RSV) read?
The value was 1.0.

And the IC50 (RSV)?
Its IC50 is over 100 µM.

And the CC50 (in vitro; [6])?
Its CC50 is over 100 µM.
